Data set [1] addresses T1, human recombinant calcium ion channel Cav2.2/β3/α2δ-1 (Homo sapiens, UniProt P54289).
T1 construct: expressed in transfected cells; host or cells: CHO cells (membranes)
The data set is described as follows: In vitro binding to human recombinant calcium ion channel Cav2.2/β3/α2δ-1 ([3H]gabapentin competition). From the text:
Example 28 In Vitro Binding of Compounds to Human Recombinant Calcium Ion Channel Cav2.2/β3/α2δ-1
There are four subtypes of the voltage-gated calcium ion channel α2δ subunit, α2δ-1, α2δ-2, α2δ-3 and α2δ-4, in which α2δ-1 is the subtype that mediates chronic neuropathic pain (Field, M. J. et al.; Proc. Natl. Acad. Sci. U.S.A. 2006, 103, 17537-17542). Therefore, the binding strength of a compound to α2δ-1 is a direct indicator for measuring an analgesic effect thereof on the chronic neuropathic pain (Calandre, E. P. et al.; Expert Rev. Neuroether. 2016, 16, 1263-1277).
The in vitro binding strength of the compound of the present application to human recombinant calcium ion channel Cav2.2/β3/α2δ-1 is basically operated according to a reported method (Gee, N. S. et al.; J. Biol. Chem. 1996, 271, 5768-5776; Marais, E. et al.; Mol. Pharmacol. 2001, 59, 1243-1248). CHO cells expressing the human recombinant calcium ion channel Cav2.2/β3/α2δ-1 were used in the test. After routine separation of cell membranes, 3 μg of the cell membranes were added into each well with a modified HEPES/KOH buffer solution (pH 7.4) as a solution of the test system. Then, 5 nM [^3H]gabapentin and the compound to be tested at 6 concentrations (3, 9, 27, 81, 243, and 729 nM) were added, and the test system was incubated at 25° C. for 120 min. Non-specific binding was obtained by replacing the compound to be tested in the above test system with […] gabapentin. After the incubation was completed, the cell membranes were collected by filtration and washed with 50 mM Tris-HCl (pH 7.4), and then the radioactivity of [^3H]gabapentin bound to the cell membranes was tested by a liquid scintillation technology. […] An inhibition rate of the compound of the present application on the binding of the [^3H]gabapentin to the human recombinant calcium ion channel Cav2.2/β3/α2δ-1 was calculated according to the following formula: […]
wherein • I is the radioactivity corresponding to that the compound to be tested and [^3H]gabapentin are simultaneously co-incubated with the human recombinant calcium ion channel Cav2.2/β3/α2δ-1, • I0 is the radioactivity corresponding to co-incubation of [^3H]gabapentin and the human recombinant calcium ion channel Cav2.2/β3/α2δ-1 without adding the compound to be tested into the incubation system, and • IU is the radioactivity corresponding to that 10 μM gabapentin and [^3H]gabapentin are simultaneously co-incubated with the human recombinant calcium ion channel Cav2.2/β3/α2δ-1.
The concentration of the compound to be tested that inhibits 50% of the binding of [^3H]gabapentin to the human recombinant calcium ion channel Cav2.2/β3/α2δ-1 is defined as IC50, and the IC50 is calculated by nonlinear least squares regression analysis using the above inhibition rate (MathIQ™, ID Business Solutions Ltd., UK).

The nature of data set [2]: Pharmacokinetic test on rats. Format: in vivo, rat. To be noted: male SD rats; for t1/2: data based on free base. The procedure:
Male SD rats were fasted for 12 h before the test and then allowed to drink water freely. The compound (+)—I-3 p-toluenesulfonate or (+)—I-4 p-toluenesulfonate of the present application was dissolved with a 10% distilled water solution of 1,2-propanediol and then administered orally or intravenously to the male SD rats, with 3 rats in each group. At 15 min, 30 min, 1 hour, 2 hours, 3 hours, 4 hours, 6 hours, 8 hours and 24 hours after the oral administration or at 5 min, 15 min, 30 min, 1 hour, 2 hours, 3 hours, 4 hours, 6 hours, 8 hours and 24 hours after the intravenous administration, 0.2 mL of blood was taken from retroocular venous plexuses, placed in an EDTA-K2 test tube, centrifuged at 11,000 rpm for 5 min to separate plasma, and frozen in a refrigerator at −20° C. The concentration of a drug prototype was determined by HPLC-ESI-MS according to a verified method, and pharmacokinetic parameters were calculated by WinNonLin.

The mark [3] stands for this setting: gavage vs intravenous injection.
Where [4] appears, read: intravenous injection, 1.10 / 1.09 mg/kg.

The term IC50 denotes the midpoint of a concentration-inhibition curve. One may read the Cmax as the maximum level reached in the sampled fluid or tissue. As a reminder, the Tmax is the time at which the peak concentration occurs.

T1 sequence (P54289 25-956 limits assumed): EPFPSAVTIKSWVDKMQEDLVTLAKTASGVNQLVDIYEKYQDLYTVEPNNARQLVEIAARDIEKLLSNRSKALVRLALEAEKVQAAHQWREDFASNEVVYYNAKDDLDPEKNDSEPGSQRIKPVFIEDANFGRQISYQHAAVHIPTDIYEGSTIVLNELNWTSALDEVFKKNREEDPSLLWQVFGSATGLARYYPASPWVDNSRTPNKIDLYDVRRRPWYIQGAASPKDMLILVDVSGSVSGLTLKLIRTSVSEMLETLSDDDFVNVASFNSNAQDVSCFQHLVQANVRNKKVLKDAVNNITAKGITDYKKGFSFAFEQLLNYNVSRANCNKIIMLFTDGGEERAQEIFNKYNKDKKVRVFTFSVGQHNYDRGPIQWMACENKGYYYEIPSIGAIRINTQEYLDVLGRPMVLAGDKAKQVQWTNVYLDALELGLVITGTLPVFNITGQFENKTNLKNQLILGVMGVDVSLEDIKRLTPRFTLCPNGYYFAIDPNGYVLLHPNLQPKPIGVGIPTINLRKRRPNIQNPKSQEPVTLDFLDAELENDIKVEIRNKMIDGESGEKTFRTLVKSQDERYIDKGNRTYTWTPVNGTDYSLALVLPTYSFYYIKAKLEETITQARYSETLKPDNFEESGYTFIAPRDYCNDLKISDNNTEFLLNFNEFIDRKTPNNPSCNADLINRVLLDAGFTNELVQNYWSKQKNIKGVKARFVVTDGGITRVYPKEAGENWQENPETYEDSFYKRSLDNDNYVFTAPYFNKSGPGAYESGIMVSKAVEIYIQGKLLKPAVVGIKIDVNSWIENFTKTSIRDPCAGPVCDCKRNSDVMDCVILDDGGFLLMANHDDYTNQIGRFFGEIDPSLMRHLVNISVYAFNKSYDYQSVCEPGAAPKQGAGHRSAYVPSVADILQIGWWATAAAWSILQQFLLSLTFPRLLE
T1 sequence (P54289 957-1103 partner limits assumed): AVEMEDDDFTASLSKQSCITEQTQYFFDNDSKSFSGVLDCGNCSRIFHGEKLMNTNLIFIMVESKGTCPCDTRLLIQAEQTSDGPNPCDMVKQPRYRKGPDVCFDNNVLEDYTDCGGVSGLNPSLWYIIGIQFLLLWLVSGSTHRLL
T1 sequence (Q00975 whole entry partner): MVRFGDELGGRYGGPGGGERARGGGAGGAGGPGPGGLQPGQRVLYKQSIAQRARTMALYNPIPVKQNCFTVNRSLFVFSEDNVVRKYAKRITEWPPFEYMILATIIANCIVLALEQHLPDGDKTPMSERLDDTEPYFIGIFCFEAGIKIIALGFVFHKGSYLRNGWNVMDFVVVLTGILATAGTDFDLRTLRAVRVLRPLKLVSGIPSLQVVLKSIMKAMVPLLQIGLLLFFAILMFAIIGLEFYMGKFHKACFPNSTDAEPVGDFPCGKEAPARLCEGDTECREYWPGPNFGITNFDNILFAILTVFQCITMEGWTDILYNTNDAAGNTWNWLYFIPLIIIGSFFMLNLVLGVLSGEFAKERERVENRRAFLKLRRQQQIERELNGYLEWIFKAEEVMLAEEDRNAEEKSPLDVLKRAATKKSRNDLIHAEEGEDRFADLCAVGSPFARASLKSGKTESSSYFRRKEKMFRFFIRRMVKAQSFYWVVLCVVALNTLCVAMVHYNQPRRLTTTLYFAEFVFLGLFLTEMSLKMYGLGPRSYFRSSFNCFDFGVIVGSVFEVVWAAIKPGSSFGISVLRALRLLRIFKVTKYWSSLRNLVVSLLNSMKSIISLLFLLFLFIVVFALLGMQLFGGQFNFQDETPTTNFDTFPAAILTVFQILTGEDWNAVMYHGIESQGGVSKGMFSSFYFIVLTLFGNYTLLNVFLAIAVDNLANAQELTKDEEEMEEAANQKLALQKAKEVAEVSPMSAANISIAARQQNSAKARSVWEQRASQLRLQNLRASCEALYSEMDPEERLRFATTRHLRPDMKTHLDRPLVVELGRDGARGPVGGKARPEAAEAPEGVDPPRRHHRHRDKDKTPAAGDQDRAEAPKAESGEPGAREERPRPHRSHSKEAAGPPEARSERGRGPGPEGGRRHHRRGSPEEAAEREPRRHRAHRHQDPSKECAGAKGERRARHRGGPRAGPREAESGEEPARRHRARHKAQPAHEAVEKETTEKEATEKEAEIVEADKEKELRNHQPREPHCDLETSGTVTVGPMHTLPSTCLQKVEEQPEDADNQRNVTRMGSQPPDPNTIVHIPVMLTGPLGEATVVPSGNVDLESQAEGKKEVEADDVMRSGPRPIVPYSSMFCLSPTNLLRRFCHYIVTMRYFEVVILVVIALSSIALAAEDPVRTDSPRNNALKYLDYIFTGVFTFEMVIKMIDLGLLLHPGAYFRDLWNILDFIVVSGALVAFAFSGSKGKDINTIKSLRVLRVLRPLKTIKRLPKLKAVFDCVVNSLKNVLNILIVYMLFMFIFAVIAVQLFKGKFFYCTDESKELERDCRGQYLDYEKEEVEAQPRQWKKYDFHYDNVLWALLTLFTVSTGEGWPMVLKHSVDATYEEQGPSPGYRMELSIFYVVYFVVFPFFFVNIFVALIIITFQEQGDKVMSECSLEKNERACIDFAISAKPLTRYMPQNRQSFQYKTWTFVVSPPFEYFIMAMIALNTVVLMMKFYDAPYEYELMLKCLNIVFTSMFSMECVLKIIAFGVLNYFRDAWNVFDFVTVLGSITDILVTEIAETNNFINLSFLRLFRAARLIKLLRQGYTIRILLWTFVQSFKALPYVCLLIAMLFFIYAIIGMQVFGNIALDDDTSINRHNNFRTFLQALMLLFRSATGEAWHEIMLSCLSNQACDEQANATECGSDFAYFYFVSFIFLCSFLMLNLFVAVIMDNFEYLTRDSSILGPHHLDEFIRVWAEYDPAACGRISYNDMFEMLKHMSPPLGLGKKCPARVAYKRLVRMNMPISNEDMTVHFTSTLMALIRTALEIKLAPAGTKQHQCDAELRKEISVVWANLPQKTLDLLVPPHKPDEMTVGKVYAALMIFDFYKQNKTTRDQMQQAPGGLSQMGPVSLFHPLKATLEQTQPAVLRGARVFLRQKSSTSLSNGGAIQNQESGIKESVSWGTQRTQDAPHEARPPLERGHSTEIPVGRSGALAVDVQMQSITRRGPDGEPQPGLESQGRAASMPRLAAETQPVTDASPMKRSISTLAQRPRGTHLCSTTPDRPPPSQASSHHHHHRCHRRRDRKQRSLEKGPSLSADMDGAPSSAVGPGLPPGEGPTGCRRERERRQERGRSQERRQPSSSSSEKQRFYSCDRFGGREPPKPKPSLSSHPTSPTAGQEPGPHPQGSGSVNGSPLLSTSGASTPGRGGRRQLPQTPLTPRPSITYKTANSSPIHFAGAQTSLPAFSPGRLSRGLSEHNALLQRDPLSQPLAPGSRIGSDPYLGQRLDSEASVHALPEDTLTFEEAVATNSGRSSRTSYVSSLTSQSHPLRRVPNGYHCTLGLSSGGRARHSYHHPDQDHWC
T1 sequence (P54284 whole entry partner): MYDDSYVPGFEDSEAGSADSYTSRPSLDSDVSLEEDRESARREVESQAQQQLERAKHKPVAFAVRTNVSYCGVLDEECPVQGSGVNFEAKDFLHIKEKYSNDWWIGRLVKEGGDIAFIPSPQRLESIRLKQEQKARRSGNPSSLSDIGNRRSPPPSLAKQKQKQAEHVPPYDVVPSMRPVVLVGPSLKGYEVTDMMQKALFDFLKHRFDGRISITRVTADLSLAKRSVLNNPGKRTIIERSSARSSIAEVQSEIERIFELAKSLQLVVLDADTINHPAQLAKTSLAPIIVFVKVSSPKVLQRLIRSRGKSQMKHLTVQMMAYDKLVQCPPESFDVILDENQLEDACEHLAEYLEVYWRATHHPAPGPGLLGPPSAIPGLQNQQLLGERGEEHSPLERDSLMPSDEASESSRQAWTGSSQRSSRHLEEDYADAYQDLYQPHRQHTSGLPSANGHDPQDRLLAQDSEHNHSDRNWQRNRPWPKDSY

Consider `CC(C)C[C@H](CN)CC(=O)O` [Pregabalin], for which the IC50 in data set [1] is 38 nM.
On to `Cc1ccc(S(=O)(=O)O)cc1.NCC1(CC(=O)O)CC2C3C=CC(C3)C21` (single isomer, unassigned; (+)) [(+)-I-4 p-toluenesulfonate], for which, in data set [2] (setting [3]), the “F (%) calculated based on AUC0-t” value is reported as 110.25% (calculated and the “F (%) calculated based on AUC0-∞” value is on record as 110.36% (calculated. The “t1/2” value in data set [2] (gavage, 2.74 mg/kg ((+)-I-3) / 2.73 mg/kg ((+)-I-4)) turned out to be 1.08 h. For the same compound, in data set [2] (gavage, 2.74 / 2.73 mg/kg), the “AUC0-t” value stood at 7290 ng·h/mL, the “AUC0-∞” value came to 7380 ng·h/mL, the “Cmax” value was 2350 ng/mL and the “MRT0-∞” value stood at 2.38 h. Moreover, the “Tmax” value in data set [2] (gavage, 2.74 / 2.73 mg/kg) turned out to be 1 h. The “t1/2” value in data set [2] (intravenous injection, 1.10 mg/kg ((+)-I-3) / 1.09 mg/kg ((+)-I-4)) was found to be 0.94 h. For the same compound, in data set [2] (setting [4]), the “AUC0-t” value was 2640 ng·h/mL, the “AUC0-∞” value is 2670 ng·h/mL and the “MRT0-∞” value is 1.63 h.

(Values after US20260174682A1, “GAMMA-AMINOBUTYRIC ACID DERIVATIVE COMPRISING POLYCYCLIC STRUCTURE, METHOD FOR PREPARING SAME, AND USE THEREOF” (ZHONGSHAN INSTITUTE FOR DRUG DISCOVERY, SIMM, CAS., priority 2022, published 2026).)
